Consider two molecules from patent publication US11130762B2, “Azaaryl derivative, preparation method therefor, and application thereof for use in pharmacy” (Abbisko Therapeutics Co., Ltd., priority 2017, dated 2021).

One assay concerns the target KIT kinase (Homo sapiens, UniProt P10721). Kind of assay: KIT in vitro biochemical kinase study (Caliper EZ Reader). Conditions: Caliper mobility shift; read-out: Enzymatic experiment KIT IC50. The protocol:
B. KIT/PDGFRA In Vitro Biochemical Kinase Study
1. Preparation of 1-Fold Kinase Buffer and Stop Solution
1.2 stop solution: 100 mM HEPES, pH 7.5, 0.015% Brij-35, 0.2% Coating Reagent #3, 50 mM EDTA
2. Preparation of Compound Solution
2.1 Dilution of Compound Solution
1) The final concentration of the compound solution was 40 μM, and the concentration of the prepared stock solution was 50 times of the final concentration, i.e., 2 mM.
2) 80 μL of 100% DMSO was added to the second well of the 96-well plate, then 20 μL of 10 mM compound solution was added, and thereby 2 mM compound solution was prepared, 60 μL of 100% DMSO was added to other wells, 20 μL of compound was taken from the second well, added to the third well and diluted by 4 times. This serial 4-time dilution was conducted in sequence for the total of 10 concentrations.
2.2 5-Fold Compound Solution Transferred to a Reaction Plate
1) 10 μL of solution was taken from each well of the above 96-well plate and added to another 96-well plate, and 90 μL of kinase buffer was added.
2) 5 μL of solution was taken from the above 96-well plate and added to a 384-well reaction plate.
1) KIT/PDGFRA kinase was added to the 1-fold kinase buffer solution to obtain a 2.5-fold kinase solution.
2) FAM-labeled polypeptide and ATP were added to the 1-fold kinase buffer solution to obtain a 2.5-fold substrate solution.
3) 10 μL of 2.5-fold kinase solution was added to the 384-well reaction plate, which already contained 5 μL of 5-fold compound in 10% DMSO. And the mixed solution was incubated at room temperature for 10 min.
4) 10 μL of 2.5-fold substrate solution was added to the 384-well reaction plate.
5) Kinase reaction and termination: the mixed solution was incubated at 28° C. for a certain period of time, and 25 μL of stop solution was added to stop the reaction.
2.4 Data Reading of Caliper EZ Reader II
2.5 Calculation of Percent Inhibition and IC50
1) Percent conversion data were copied from the Caliper EZ Reader. […]

Assay [1] concerns M-07e human cytomegalic leukemia cells. The assay can be described thus: Cell proliferation (Cell Titer Glo), M-07e cells with SCF (KIT). Conditions: 72 h, 3 days, CTG, * = average of multiple tests, read-out: Cytological experiment KIT IC50. Format: cell-based. The protocol:
D. CSF-1R-Related Cell Proliferation Experiment
Functional effects of compounds on the proliferation of several cell lines were evaluated by Cell Titer Glo (CTG) studies in the present invention, and effects of the compounds on the proliferation of different cells were evaluated to determine the selectivity degree of the compounds. In the experiment, M-07e human cytomegalic leukemia cells (cat. No. CBP60791) from Nanjing Kebai Biotechnology Co., Ltd. were cultured in an incubator under conditions of RPMI1640 (Gibco, cat. No. 11875-119), 20% fetal bovine serum (Gibco, 10099-141), human 10 ng/mL GM-CSF granulocyte macrophage colony-stimulating factors (R&D, cat. No. 215-GM-010), 37° C., and 5% CO2; and Kasumi-1 human acute myeloblastic leukemia cells (cat. No. CBP60524) were cultured in an incubator under conditions of RPMI1640 (Gibco, cat. No. 11875-119), 20% fetal bovine serum (Gibco, 10099-141), 37° C., and 5% CO2: NCI-H1703 human non-small cell lung squamous carcinoma cells (cat. No. CBP60115) were cultured in an incubator under conditions of RPMI1640 (Gibco, cat. No. 11875-119), 10% fetal bovine serum (Gibco, 10099-141), 37° C., and 5% CO2; MV-4-11 human acute monocytic leukemia cells (cat. No. CBP60522) were cultured in an incubator under conditions of IMDM (Invitrogen, cat. No. 12440053), 20% fetal bovine serum (Gibco, 10099-141), 37° C., and 5% CO2. Since ATP is an index for viable cell metabolism, CTG (Promega, #G7573) reagent is a homogeneous detection method for detecting the number of viable cells in the culture by quantifying ATP. Therefore, compound-mediated inhibition for cell proliferation/survival was evaluated by quantifying ATP content in cells, and the specific experimental process was as follows.
I) M-07e Human Cytomegalic Leukemia Cell:
1. The cells were plated into a tissue-culture-medium-treated 96-well plate (Costar #3904) with 3500 cells/well/80 μL fresh culture medium, and cultured for 24 hrs;
2. the next day, 10 μL of culture medium containing testing compound with 10-fold of final concentration was added to each well:
3. 10 μL of culture medium containing SCF recombinant human stem cell factor (R&D, cat. No. 7466-SC-010) with 10-fold of the final concentration was then added to each well;
4. the dosage effect was evaluated by testing 4-fold serial dilutions of the compound, which started from 18 μM;
5. after the cells were incubated for 3 days at 37° C. and 5% CO2, the inhibition on cell survival was quantified after 50 μL of CTG was added and the luminescence assay was performed;
6. the compound concentration leading to half maximal inhibitory (IC50) and the compound concentration leading to absolute half maximal inhibitory (Absolute IC50) were measured by a plate reader (M1000, Tecan) and a four-parameter curve fit in Graphpad Prism 7.
(Cellular ATP, detected with luciferase, serves as a proxy for viable cell number.)

KIT kinase, sequence (P10721 26-976): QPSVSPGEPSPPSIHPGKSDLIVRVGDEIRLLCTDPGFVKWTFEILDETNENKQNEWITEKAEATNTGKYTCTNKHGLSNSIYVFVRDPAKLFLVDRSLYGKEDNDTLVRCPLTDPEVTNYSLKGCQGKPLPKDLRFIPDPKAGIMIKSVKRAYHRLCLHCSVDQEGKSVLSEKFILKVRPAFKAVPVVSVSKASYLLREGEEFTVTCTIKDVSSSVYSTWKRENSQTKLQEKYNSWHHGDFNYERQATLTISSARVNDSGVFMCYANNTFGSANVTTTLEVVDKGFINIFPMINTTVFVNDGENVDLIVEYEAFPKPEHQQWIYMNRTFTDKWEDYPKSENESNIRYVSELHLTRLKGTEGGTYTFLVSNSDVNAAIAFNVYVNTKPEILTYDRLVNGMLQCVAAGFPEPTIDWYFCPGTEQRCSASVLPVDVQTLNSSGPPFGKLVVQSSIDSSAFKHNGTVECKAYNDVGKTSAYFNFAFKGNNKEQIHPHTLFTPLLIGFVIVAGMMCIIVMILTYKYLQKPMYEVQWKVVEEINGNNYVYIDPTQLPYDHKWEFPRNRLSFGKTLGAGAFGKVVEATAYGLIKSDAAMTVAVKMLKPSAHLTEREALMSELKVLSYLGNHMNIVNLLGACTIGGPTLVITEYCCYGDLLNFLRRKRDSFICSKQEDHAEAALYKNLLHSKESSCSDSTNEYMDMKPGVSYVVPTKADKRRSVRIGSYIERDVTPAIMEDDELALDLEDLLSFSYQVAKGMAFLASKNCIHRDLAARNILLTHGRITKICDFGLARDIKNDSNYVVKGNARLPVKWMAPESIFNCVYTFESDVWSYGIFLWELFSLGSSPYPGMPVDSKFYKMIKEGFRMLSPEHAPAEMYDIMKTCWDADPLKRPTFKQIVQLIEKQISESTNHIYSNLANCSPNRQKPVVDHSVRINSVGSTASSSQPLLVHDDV

On to `Cc1nc(-c2cnc3n(c2=O)CCCN3C)ccc1Oc1ccnc(-c2cnn(C)c2)c1` [Example 1, 9-methyl-3-(6-methyl-5-((2-(1-methyl-1H-pyrazol-4-yl)pyridin-4-yl)oxy)pyridin-2-yl)-6,7,8,9-tetrahydro-4H-pyrimido[1,2-a]pyrimidin-4-one], for which the IC50 is 365 nM on KIT kinase and above 2000 nM in assay [1].

Turning to `CCN1CCCn2c1ncc(-c1ccc(Oc3ccnc(-c4cnn(C)c4)c3)c(C)n1)c2=O` [Example 4], the IC50 on KIT kinase amounted to 20.5 nM; in assay [1] it was 436 nM.

As a reminder, the IC50 is the concentration needed to halve the response being measured.
